Experimental data as given in PubChem BioAssay AID1259407 (Chemical Carcinogenesis Research Information System (CCRIS), 2018).
Active and inactive are the calls of the source. How the calls were made is not given here.

Tested on: CCRIS mutagenicity, Ames/micronucleus/aberration tests
Experiment: CCRIS mutagenicity studies
[1] = Test System: AMES SALMONELLA TYPHIMURIUM, Strain/Indicator: TA98, Metabolic Activation: NONE, Method: STANDARD PLATE
[2] = Test System: AMES SALMONELLA TYPHIMURIUM, Strain/Indicator: TA98, Metabolic Activation: RAT, LIVER, S-9, AROCLOR 1254, Method: STANDARD PLATE
[3] = Test System: AMES SALMONELLA TYPHIMURIUM, Strain/Indicator: TA100, Metabolic Activation: NONE, Method: STANDARD PLATE
[4] = Test System: AMES SALMONELLA TYPHIMURIUM, Strain/Indicator: TA100, Metabolic Activation: RAT, LIVER, S-9, AROCLOR 1254, Method: STANDARD PLATE
[5] = Test System: AMES SALMONELLA TYPHIMURIUM, Strain/Indicator: TA1535, Metabolic Activation: NONE, Method: STANDARD PLATE
[6] = Test System: AMES SALMONELLA TYPHIMURIUM, Strain/Indicator: TA1535, Metabolic Activation: RAT, LIVER, S-9, AROCLOR 1254, Method: STANDARD PLATE
[7] = Test System: AMES SALMONELLA TYPHIMURIUM, Strain/Indicator: TA1537, Metabolic Activation: NONE, Method: STANDARD PLATE
[8] = Test System: AMES SALMONELLA TYPHIMURIUM, Strain/Indicator: TA1537, Metabolic Activation: RAT, LIVER, S-9, AROCLOR 1254, Method: STANDARD PLATE
[9] = Test System: AMES SALMONELLA TYPHIMURIUM, Strain/Indicator: TA1538, Metabolic Activation: NONE, Method: STANDARD PLATE
[10] = Test System: E. COLI, Strain/Indicator: WP2, Metabolic Activation: NONE, Method: STANDARD PLATE
[11] = Test System: E. COLI, Strain/Indicator: WP2, Metabolic Activation: RAT, LIVER, S-9, AROCLOR 1254, Method: STANDARD PLATE

Measured: mutagenic call

COCC1O[C@@H](O[C@@H]2C(COC)OC(OC)C(OC)C2OC)C(OC)C(OC)C1OC (some centres not stated)
inactive: [1] inactive; negative | [2] inactive; negative | [3] inactive; negative | [4] inactive; negative | [5] inactive; negative | [6] inactive; negative | [7] inactive; negative | [8] inactive; negative | [9] inactive; negative | Test System: AMES SALMONELLA TYPHIMURIUM, Strain/Indicator: TA1538, Metabolic Activation: RAT, LIVER, S-9, AROCLOR 1254, Method: STANDARD PLATE inactive; negative | [10] inactive; negative | [11] inactive; negative

CC(C)(C)S(=O)(=O)C[C@@H](Cc1ccccc1)C(=O)N[C@@H](Cc1cnc[nH]1)C(=O)N[C@@H](CC1CCCCC1)[C@@H](O)[C@@H](O)C1CC1
inactive: Test System: AMES SALMONELLA TYPHIMURIUM, Strain/Indicator: TA97, Metabolic Activation: NONE, Method: PREINCUBATION inactive; negative | Test System: AMES SALMONELLA TYPHIMURIUM, Strain/Indicator: TA97, Metabolic Activation: NONE, Method: STANDARD PLATE inactive; negative | Test System: AMES SALMONELLA TYPHIMURIUM, Strain/Indicator: TA97, Metabolic Activation: RAT, LIVER, S-9, PHENOBARBITAL AND BETA-NAPHTHOFLAVONE, Method: PREINCUBATION inactive; negative | Test System: AMES SALMONELLA TYPHIMURIUM, Strain/Indicator: TA97, Metabolic Activation: RAT, LIVER, S-9, PHENOBARBITAL AND BETA-NAPHTHOFLAVONE, Method: STANDARD PLATE inactive; negative | Test System: AMES SALMONELLA TYPHIMURIUM, Strain/Indicator: TA98, Metabolic Activation: NONE, Method: PREINCUBATION inactive; negative | [1] inactive; negative | Test System: AMES SALMONELLA TYPHIMURIUM, Strain/Indicator: TA98, Metabolic Activation: RAT, LIVER, S-9, PHENOBARBITAL AND BETA-NAPHTHOFLAVONE, Method: PREINCUBATION inactive; negative | Test System: AMES SALMONELLA TYPHIMURIUM, Strain/Indicator: TA98, Metabolic Activation: RAT, LIVER, S-9, PHENOBARBITAL AND BETA-NAPHTHOFLAVONE, Method: STANDARD PLATE inactive; negative | Test System: AMES SALMONELLA TYPHIMURIUM, Strain/Indicator: TA100, Metabolic Activation: NONE, Method: PREINCUBATION inactive; negative | [3] inactive; negative | Test System: AMES SALMONELLA TYPHIMURIUM, Strain/Indicator: TA100, Metabolic Activation: RAT, LIVER, S-9, PHENOBARBITAL AND BETA-NAPHTHOFLAVONE, Method: PREINCUBATION inactive; negative | Test System: AMES SALMONELLA TYPHIMURIUM, Strain/Indicator: TA100, Metabolic Activation: RAT, LIVER, S-9, PHENOBARBITAL AND BETA-NAPHTHOFLAVONE, Method: STANDARD PLATE inactive; negative | Test System: AMES SALMONELLA TYPHIMURIUM, Strain/Indicator: TA102, Metabolic Activation: NONE, Method: PREINCUBATION inactive; negative | Test System: AMES SALMONELLA TYPHIMURIUM, Strain/Indicator: TA102, Metabolic Activation: NONE, Method: STANDARD PLATE inactive; negative | Test System: AMES SALMONELLA TYPHIMURIUM, Strain/Indicator: TA102, Metabolic Activation: RAT, LIVER, S-9, PHENOBARBITAL AND BETA-NAPHTHOFLAVONE, Method: PREINCUBATION inactive; negative | Test System: AMES SALMONELLA TYPHIMURIUM, Strain/Indicator: TA102, Metabolic Activation: RAT, LIVER, S-9, PHENOBARBITAL AND BETA-NAPHTHOFLAVONE, Method: STANDARD PLATE inactive; negative | Test System: AMES SALMONELLA TYPHIMURIUM, Strain/Indicator: TA1535, Metabolic Activation: NONE, Method: PREINCUBATION inactive; negative | [5] inactive; negative | Test System: AMES SALMONELLA TYPHIMURIUM, Strain/Indicator: TA1535, Metabolic Activation: RAT, LIVER, S-9, PHENOBARBITAL AND BETA-NAPHTHOFLAVONE, Method: PREINCUBATION inactive; negative | Test System: AMES SALMONELLA TYPHIMURIUM, Strain/Indicator: TA1535, Metabolic Activation: RAT, LIVER, S-9, PHENOBARBITAL AND BETA-NAPHTHOFLAVONE, Method: STANDARD PLATE inactive; negative | Test System: AMES SALMONELLA TYPHIMURIUM, Strain/Indicator: TA1537, Metabolic Activation: NONE, Method: PREINCUBATION inactive; negative | [7] inactive; negative | Test System: AMES SALMONELLA TYPHIMURIUM, Strain/Indicator: TA1537, Metabolic Activation: RAT, LIVER, S-9, PHENOBARBITAL AND BETA-NAPHTHOFLAVONE, Method: PREINCUBATION inactive; negative | Test System: AMES SALMONELLA TYPHIMURIUM, Strain/Indicator: TA1537, Metabolic Activation: RAT, LIVER, S-9, PHENOBARBITAL AND BETA-NAPHTHOFLAVONE, Method: STANDARD PLATE inactive; negative | Test System: AMES SALMONELLA TYPHIMURIUM, Strain/Indicator: TA1538, Metabolic Activation: NONE, Method: PREINCUBATION inactive; negative | [9] inactive; negative | Test System: AMES SALMONELLA TYPHIMURIUM, Strain/Indicator: TA1538, Metabolic Activation: RAT, LIVER, S-9, PHENOBARBITAL AND BETA-NAPHTHOFLAVONE, Method: PREINCUBATION inactive; negative | Test System: AMES SALMONELLA TYPHIMURIUM, Strain/Indicator: TA1538, Metabolic Activation: RAT, LIVER, S-9, PHENOBARBITAL AND BETA-NAPHTHOFLAVONE, Method: STANDARD PLATE inactive; negative

CCC(=O)OCC(=O)[C@@]1(OC(=O)CC)[C@H](C)C[C@H]2[C@H]3[C@H]([C@@H](O)C[C@@]21C)[C@@]1(C)C=CC(=O)C=C1C[C@H]3Cl
inactive: [1] inactive; negative | [2] inactive; negative | [3] inactive; negative | [4] inactive; negative | [5] inactive; negative | [6] inactive; negative | [7] inactive; negative | [8] inactive; negative | [10] inactive; negative | [11] inactive; negative | Test System: E. COLI, Strain/Indicator: WP2 UVRA, Metabolic Activation: NONE, Method: STANDARD PLATE inactive; negative | Test System: E. COLI, Strain/Indicator: WP2 UVRA, Metabolic Activation: RAT, LIVER, S-9, AROCLOR 1254, Method: STANDARD PLATE inactive; negative
